Measurements taken from patent US6887997B2, “9H-imidazo[1,2-a]purin-9-one compounds” (Yung Shin Pharmaceutical Ind. Co., Ltd., priority 2001, dated 2005).

melting point: 226 to 228 °C
Compound: O=c1c2ncn(COCCO)c2nc2[nH]c(-c3ccc(Cl)s3)cn12 [compound 2, 3-(2-Hydroxy-ethoxymethyl)-6-(5-chloro-thiophen-2-yl)-3,5-dihydro-1,3,4,5,7a-pentaaza-s-indacen-8-one]
